The source of these data is patent US20220370463A1, “STABILIZED C-FMS INTRACELLULAR FRAGMENTS (FICD) PROMOTE OSTEOCLAST DIFFERENTIATION AND ARTHRITIC BONE EROSION” (New York Society for the Relief of the Ruptured and …, priority 2019, published 2022).

Each structure is given as a SMILES string.

One data set deals with osteoclastogenesis. The conditions noted are these: inhibiting proteosomal degradation; cited from earlier work.
Data set [1] relates to NFATc1. The data set can be described thus: RANKL-induced NFATc1 expression in human OCPs (immunoblot, qPCR). Type of data set: cell-based. The procedure: (a and b) BMDMs from WT and FICDtg^M mice was stimulated with RANKL (50 ng/ml) at the indicated time. (a) RT-qPCR of Nfatc1 mRNA normalized relative to Hprt mRNA. (b) Immunoblot with anti NFATc1, HA, or α-tubulin antibodies. (c and d) BMDMs from Csf1r^f/+ Mx1-Cre mice were transduced by lentiviruses encoding FMS^wt, or FMS^mut and then cultured with M-CSF and RANKL. (c) Immunoblot of whole lysate with anti-NFATc1 antibody. α-tubulin was used as a control. […] The intensity of NFATc1 in FMS^mut was set as 100%. (d) Expression mRNA level of NFATc1. (e) Immunoblot of whole cell lysates with phospho-eIF4E antibodies. HA-tagged FICD was detected by HA-antibody. α-tubulin was used as a control. […] (f and g) Human CD14+ cells were treated with CGP57380 at the indicated doses for one hour and cultured with RANKL for one day. […] (g) Nfatc1 mRNA expression was measured by qPCR relative to HPRT. A DMSO-treated RANKL condition was set as 100%. […]
(§1) Whole cell extracts were prepared by lysis in buffer containing 1× Lamin sample buffer (Bio-rad) and 2-Mercaptoethanol (Sigma) or RIPA buffer (Sigma). […] The protein concentration of nuclear extracts was quantitated using the Bradford assay (Bio-Rad; 5000001). For immunoblot, proteins were separated on 7.5 or 10% SDS-PAGE gels, transferred to polyvinylidene difluoride membranes (PVDF, Millipore; ISEQ00010), and detected by antibodies as listed in the figure legends.
For orientation: A western blot detects proteins with antibodies after separation by electrophoresis.

In data set [2] the test system is BMDMs from WT and FICDtg^M mice. The data set can be described thus: Cell viability assay in BMDMs. The class given is cell-based, mouse. The conditions noted are these: CGP57380 at the indicated doses for one day. The procedure:
(a and b) BMDMs from WT and FICDtg^M mice was stimulated with RANKL (50 ng/ml) at the indicated time. (a) RT-qPCR of Nfatc1 mRNA normalized relative to Hprt mRNA. (b) Immunoblot with anti NFATc1, HA, or α-tubulin antibodies. (c and d) BMDMs from Csf1r^f/+ Mx1-Cre mice were transduced by lentiviruses encoding FMS^wt, or FMS^mut and then cultured with M-CSF and RANKL. (c) Immunoblot of whole lysate with anti-NFATc1 antibody. α-tubulin was used as a control. […] The intensity of NFATc1 in FMS^mut was set as 100%. (d) Expression mRNA level of NFATc1. (e) Immunoblot of whole cell lysates with phospho-eIF4E antibodies. HA-tagged FICD was detected by HA-antibody. α-tubulin was used as a control. […] (f and g) Human CD14+ cells were treated with CGP57380 at the indicated doses for one hour and cultured with RANKL for one day. […] (g) Nfatc1 mRNA expression was measured by qPCR relative to HPRT. A DMSO-treated RANKL condition was set as 100%. (h) Osteoclastogenesis assay. BMDMs from WT and FICDtg^M mice were treated with CPG57380 at the indicated doses and then cultured with RANKL for three days. […] Scale bar: 100 μm. (i) Cell viability assay. BMDMs WT and FICDtg^M mice was stimulated with CPG57380 at the indicated doses for one day. (j-n) K/BxN serum transfer induced arthritis model. 9-week old male C57BL/6J mice were received K/BxN serum on day 0 and day 2. […]

In another data set the test system is BMDM cells. The experiment in a line: Mouse osteoclastogenesis assay in BMDMs (TRAP-positive multinuclear cells). The class given is cell-based. On the procedure: (a and b) BMDMs from WT and FICDtg^M mice was stimulated with RANKL (50 ng/ml) at the indicated time. (a) RT-qPCR of Nfatc1 mRNA normalized relative to Hprt mRNA. (b) Immunoblot with anti NFATc1, HA, or α-tubulin antibodies. (c and d) BMDMs from Csf1r^f/+ Mx1-Cre mice were transduced by lentiviruses encoding FMS^wt, or FMS^mut and then cultured with M-CSF and RANKL. (c) Immunoblot of whole lysate with anti-NFATc1 antibody. α-tubulin was used as a control. […] The intensity of NFATc1 in FMS^mut was set as 100%. (d) Expression mRNA level of NFATc1. (e) Immunoblot of whole cell lysates with phospho-eIF4E antibodies. HA-tagged FICD was detected by HA-antibody. α-tubulin was used as a control. […] (f and g) Human CD14+ cells were treated with CGP57380 at the indicated doses for one hour and cultured with RANKL for one day. […] (g) Nfatc1 mRNA expression was measured by qPCR relative to HPRT. A DMSO-treated RANKL condition was set as 100%. (h) Osteoclastogenesis assay. […]
(A and B) BMDMs from WT and FICDtg^M mice were cultured with RANKL for 24 hours. […] HA-tagged FICDs were detected by HA-antibody. α-tubulin or P38 was used as a control. […]
For human osteoclastogenesis assays, cells were added to 96 well plates in triplicate at a seeding density of 5×10^4 cells per well. […] Multinucleated (greater than 3 nuclei), TRAP-positive osteoclasts were counted in triplicate wells. […]

Data set [3] relates to NFATc1. The data set can be described thus: RANKL-induced NFATc1 expression in mouse OCPs (immunoblot, qPCR). The class given is cell-based. The procedure:
(A and B) BMDMs from WT and FICDtg^M mice were cultured with RANKL for 24 hours. Immunoblot of whole cell lysates with phopho-p70S6K and phopho-4E-BP1 antibodies. HA-tagged FICDs were detected by HA-antibody. α-tubulin or P38 was used as a control. (C) BMDMs from female wild type LysM cre mice (WT) or RAPTORf/f-LysM cre mice (Raptor cKO) were cultured with M-CSF for 4 days and were stimulated with RANKL for the indicated days. Immunoblot of whole cell lysates with anti-Raptor, NFATc1, or α-tubulin antibodies. (D-F) BMDMs from WT mice were treated with CPG57380 at the indicated doses and then cultured with RANKL for one day. (D) Immunoblot of whole lysate with anti-NFATc1 antibody. α-tubulin was used as a control. […] The intensity of NFATc1 bands in RANKL treatment conditions (control) was set as 100%. (n=4) (E) Expression mRNA level of NFATc1. […]
as §1

Setting [4] is: CGP57380, RANKL for one day, qPCR.

Consider `CC(C)C[C@H](NC(=O)[C@H](Cc1ccccc1)NC(=O)c1cnccn1)B(O)O` [bortezomib], for which, in the data set on osteoclastogenesis, the osteoclastogenesis result is “suppresses osteoclastogenesis”.
In the case of `Nc1ncnc2n[nH]c(Nc3ccc(F)cc3)c12` [CGP57380], the “Nfatc1 mRNA expression” value in the data set with NFATc1 [1] (setting [4]) and in the data set with NFATc1 [3] (setting [4]) was “marginally changed” throughout. The “RANKL-induced NFATc1 protein expression” value is given as “suppressed RANKL-induced NFATc1 protein expression in a dose-dependent manner” in the data set with NFATc1 [1] (CGP57380 one hour, then RANKL for one day) and “suppressed RANKL-induced NFATc1 protein expression in a dose-dependent manner” in the data set with NFATc1 [3] (CGP57380, then RANKL for one day). In addition, in data set [2], the cell viability result is listed as “minimal effect”. Moreover, the “enhanced osteoclastogenesis in FICDtg^M cells” value in the data set with BMDM cells (BMDMs from FICDtg^M mice, RANKL for three days) was “inhibited the enhanced osteoclastogenesis in FICDtg^M cells to become comparable to osteoclasts in WT cells”. In addition, the osteoclast differentiation result in the data set with BMDM cells (BMDMs from WT mice, RANKL for 3 days) is “suppressed osteoclast differentiation in a dose-dependent manner”.
